# From patent US12568967B2, “Compositions comprising pyridine carboxylate herbicides with synthetic auxin herbicides or auxin transport inhibitors” (priority 2018, dated 2026)
# Where two headings read alike, the source gives them in different places.
# Experiments:
# [1] = tested on: Triticum aestivum (spring wheat, TRZAS); assay type: in vivo
# [2] = tested on: Abutilon theophrasti (velvetleaf, ABUTH); assay: Greenhouse postemergence trial ABUTH; assay type: in vivo
# Protocol: (§1) Seeds of the desired test plant species were planted in a 90:10% v/v (volume/volume) mixture of PRO-MIX® BX (Premier Tech Horticulture, Quakertown, PA, USA) and PROFILE® GREENS GRADE™ (Profile Products LLC, Buffalo Grove, IL, USA) planting mixture, which typically has a pH of 5.2 to 6.2 and an organic matter content of at least 50 percent, in plastic pots with a surface area of 103.2 square centimeters (cm^2). […] The plants were grown for 7-36 days (d) in a greenhouse with an approximate 14-hour (h) photo-period which was maintained at about 23° C. during the day and 22° C. during the night. Nutrients and water were added on a regular basis and supplemental lighting was provided with overhead metal halide 1000-Watt lamps as necessary. The plants were employed for testing when they reached the second or third true leaf stage.
# (§2) Emulsifiable concentrates of each of each pyridine carboxylate herbicide (Compound A or Compound B) were prepared at 100 grams acid equivalent per liter (g ae/L). The emulsifiable concentrates also included a safener, cloquintocet-mexyl, at 120 grams active ingredient per liter (g ai/L), unless otherwise noted below. An aliquot of each emulsifiable concentrate was placed in a 25 mL glass vial and diluted with an aqueous mixture of 1.25% (v/v) ACTIROB® B esterified rapeseed oil (Bayer Crop Science, Research Triangle Park, NC, USA) or MSO® Concentrate with LECI-TECH® methylated soybean oil (Loveland Products, Loveland, CO, USA) to obtain concentrated stock solutions at the highest application rate for each herbicide, based upon a 12 milliliter (mL) application volume at a rate of 187 liters per hectare (L/ha). The concentrated stock solutions were further diluted with an aqueous mixture of 1.25% v/v ACTIROB® B or MSO® Concentrate with LECI-TECH® to obtain stock solutions at reduced application rates for each herbicide. Spray solutions of the herbicide combinations (Compound A or Compound B plus synthetic auxin herbicide or auxin transport inhibitor) were prepared by adding weighed amounts or aliquots of the synthetic auxin herbicide or auxin transport inhibitor to the stock solutions of Compound A or Compound B to form 12-mL spray solutions in two-way combinations.
# (§3) The spray solutions were applied to the plant material with an overhead Mandel track sprayer equipped with 8002E nozzles calibrated to deliver 187 L/ha over an application area of 0.503 square meters (m^2) at a spray height of 18 inches (43 centimeters (cm)) above the average plant canopy. Control plants were sprayed in the same manner with the solvent blank. All pyridine carboxylate herbicide (component a) application rates are given as “g ae/ha” and all synthetic auxin herbicide or auxin transport inhibitor (component b) application rates are given as “g ai/ha.”
# (§4) The treated plants and control plants were placed in a greenhouse as described above and watered by sub-irrigation to prevent wash-off of the test compounds. After 20-22 d, the condition of the test plants as compared with that of the control plants was determined visually and scored on a scale of 0 to 100 percent where 0 corresponds to no injury and 100 corresponds to complete kill.
# [3] = tested on: Kochia scoparia (kochia, KCHSC); assay: Greenhouse postemergence trial KCHSC; assay type: in vivo
# [4] = tested on: Veronica persica (bird's-eye speedwell, VERPE); assay: Greenhouse postemergence trial VERPE; assay type: in vivo; conditions: Compound B 10 g/ha (Table 39)
# [5] = tested on: Veronica hederifolia (ivyleaf speedwell, VERHE); assay: Greenhouse postemergence trial VERHE; assay type: in vivo; conditions: Compound B 10 g/ha (Table 39)
# [6] = tested on: Viola tricolor (wild pansy, VIOTR); assay: Greenhouse postemergence trial VIOTR;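 further: greenhouse plants sprayed at second to third true leaf stage, injury rated visually after 20-22 d against solvent-blank sprayed controls, 0 meaning no injury and 100 complete kill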
# [7] = tested on: Rumex obtusifolius (broad-leaf dock, RUMOB); assay: Greenhouse postemergence trial RUMOB; assay type: in vivo
# [8] = tested on: Brassica napus (winter rape, BRSNW); assay: Greenhouse postemergence trial BRSNW; assay type: in vivo
# [9] = tested on: Chenopodium album L. (common lambsquarters, CHEAL); assay: Greenhouse postemergence trial CHEAL; assay type: in vivo;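 further: greenhouse plants sprayed at second to third true leaf stage, injury rated by eye after 20-22 d versus solvent-blank sprayed controls, 0 = no injury, 100 = complete kill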
# [10] = tested on: Glycine max (volunteer soybean, GLXMA); assay: Greenhouse postemergence trial GLXMA; assay type: in vivo
# [11] = tested on: Stellaria media (chickweed, STEME); assay: Greenhouse postemergence trial STEME; assay type: in vivo
# [12] = tested on: Helianthus annuus (common sunflower, HELAN); assay: Greenhouse postemergence trial HELAN; assay type: in vivo
# Protocol: as §1, §2, §3, §4
# [13] = tested on: Cirsium arvense (Canadian thistle, CIRAR); assay: Greenhouse postemergence trial CIRAR; assay type: in vivo
# [14] = tested on: Amaranthus retroflexus (pigweed, AMARE); assay: Greenhouse postemergence trial AMARE; assay type: in vivo;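 further: Greenhouse-grown plants sprayed at second to third true leaf stage, injury rated by eye after 20-22 d versus solvent-blank sprayed controls, 0 = no injury, 100 = complete kill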
# [15] = tested on: Ipomoea hederacea (ivyleaf morningglory, IPOHE); assay: Greenhouse postemergence trial IPOHE; assay type: in vivo
# Protocol: as §1, §2, §3, §4
# [16] = tested on: Hordeum vulgare (spring barley, HORVS); assay type: in vivo
# [17] = tested on: Polygonum convolvulus (wild buckwheat, POLCO); assay: Greenhouse postemergence trial POLCO; assay type: in vivo
# [18] = tested on: Matricaria chamomilla (wild chamomile, MATCH); assay: Greenhouse postemergence trial MATCH; assay type: in vivo;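 further: greenhouse plants sprayed at second to third true leaf stage, injury rated by eye 20-22 d later versus solvent-blank controls on 0–100 scale, 0 no injury, 100 complete kill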
# Protocol: The plants were grown for 7-36 days (d) in a greenhouse with an approximate 14-hour (h) photo-period which was maintained at about 23° C. during the day and 22° C. during the night. Nutrients and water were added on a regular basis and supplemental lighting was provided with overhead metal halide 1000-Watt lamps as necessary. The plants were employed for testing when they reached the second or third true leaf stage.
# The emulsifiable concentrates also included a safener, cloquintocet-mexyl, at 120 grams active ingredient per liter (g ai/L), unless otherwise noted below.
# Control plants were sprayed in the same manner with the solvent blank. All pyridine carboxylate herbicide (component a) application rates are given as “g ae/ha” and all synthetic auxin herbicide or auxin transport inhibitor (component b) application rates are given as “g ai/ha.”
# as §4
# [19] = tested on: Matricaria discoidea (pineapple weed, MATMT); assay: Greenhouse postemergence trial MATMT; assay type: in vivo
# [20] = tested on: Papaver rhoeas (corn poppy), herbicide-resistant (PAPRH-R); assay: Greenhouse postemergence trial PAPRH-R; assay type: in vivo
# Protocol: as §1, §2, §3, §4
compound,measurement,setting,value
"C#CCOC(=O)c1nc(-c2ccc3cc[nH]c3c2F)c(F)c(N)c1Cl [Compound B, propargyl 4-amino-3-chloro-5-fluoro-6-(7-fluoro-1H-indol-6-yl)pyridine-2-carboxylate]",TRZAS % visual injury Obs,[1]; Compound B 10 g/ha (Table 36),0%
same,TRZAS % visual injury Obs,[1]; Compound B 10 g/ha (Table 37),0%
same,"% visual injury, Obs","[1]; TRZAS, applied alone, 10 g/ha",0%
same,ABUTH % visual injury Obs,[2]; Compound B 10 g/ha (Table 40),68%
same,ABUTH % visual injury Obs,[2]; Compound B 10 g/ha (Table 41),68%
same,KCHSC % visual injury Obs,[3]; Compound B 10 g/ha (Table 40),73%
same,KCHSC % visual injury Obs,[3]; Compound B 10 g/ha (Table 41),73%
same,VERVE % visual injury Obs,[4],80%
same,VERHE % visual injury Obs,[5],70%
same,VIOTR % visual injury Obs,[6]; Compound B 10 g/ha (Table 40),8%
same,VIOTR % visual injury Obs,[6]; Compound B 10 g/ha (Table 41),8%
same,RUMOB % visual injury Obs,[7]; Compound B 10 g/ha (Table 40),15%
same,RUMOB % visual injury Obs,[7]; Compound B 10 g/ha (Table 41),15%
same,plant injury at 10 g/ha,"[8]; Brassica napus, post-emergence, BRSNW, applied alone, 10 g/ha, read-out: % visual injury, Obs",73%
same,BRSNW % visual injury Obs,[8]; Compound B 10 g/ha (Table 36),73%
same,BRSNW % visual injury Obs,[8]; Compound B 10 g/ha (Table 37),73%
same,BRSNW % visual injury Obs,[8]; Compound B 10 g/ha (Table 39),93%
same,CHEAL % visual injury Obs,[9]; Compound B 10 g/ha (Table 40),93%
same,CHEAL % visual injury Obs,[9]; Compound B 10 g/ha (Table 41),93%
same,GLXMA % visual injury Obs,[10]; Compound B 10 g/ha (Table 40),73%
same,GLXMA % visual injury Obs,[10]; Compound B 10 g/ha (Table 41),73%
same,STEME % visual injury Obs,[11]; Compound B 10 g/ha (Table 40),90%
same,STEME % visual injury Obs,[11]; Compound B 10 g/ha (Table 41),90%
same,HELAN % visual injury Obs,[12]; Compound B 10 g/ha (Table 40),100%
same,HELAN % visual injury Obs,[12]; Compound B 10 g/ha (Table 41),100%
same,CIRAR % visual injury Obs,[13]; Compound B 10 g/ha (Table 36),25%
same,CIRAR % visual injury Obs,[13]; Compound B 10 g/ha (Table 37),25%
same,CIRAR % visual injury Obs,[13]; Compound B 10 g/ha (Table 40),55%
same,CIRAR % visual injury Obs,[13]; Compound B 10 g/ha (Table 41),55%
same,"% visual injury, Obs","[14]; AMARE, applied alone, 10 g/ha",84%
same,AMARE % visual injury Obs,[14]; Compound B 10 g/ha (Table 36),84%
same,AMARE % visual injury Obs,[14]; Compound B 10 g/ha (Table 40),73%
same,AMARE % visual injury Obs,[14]; Compound B 10 g/ha (Table 41),73%
same,IPOHE % visual injury Obs,[15]; Compound B 10 g/ha (Table 40),0%
same,IPOHE % visual injury Obs,[15]; Compound B 10 g/ha (Table 41),0%
same,HORVS % visual injury Obs,[16]; Compound B 10 g/ha (Table 36),0%
same,HORVS % visual injury Obs,[16]; Compound B 10 g/ha (Table 37),0%
same,"% visual injury, Obs","[16]; HORVS, applied alone, 10 g/ha",0%
same,POLCO % visual injury Obs,[17]; Compound B 10 g/ha (Table 36),97%
same,POLCO % visual injury Obs,[17]; Compound B 10 g/ha (Table 40),90%
same,POLCO % visual injury Obs,[17]; Compound B 10 g/ha (Table 41),90%
same,MATCH % visual injury Obs,[18]; Compound B 10 g/ha (Table 39),20%
same,"% visual injury, Obs","[18]; MATCH, applied alone, 10 g/ha",18%
same,MATMT % visual injury Obs,[19]; Compound B 10 g/ha (Table 38),20%
same,MATMT % visual injury Obs,[19]; Compound B 10 g/ha (Table 39),20%
same,PAPRH-R % visual injury Obs,[20]; Compound B 10 g/ha (Table 38),95%
same,PAPRH-R % visual injury Obs,[20]; Compound B 10 g/ha (Table 39),95%
